Test [1] addresses T1, ABL2 SH3 domain (aa 107-167) (Homo sapiens, UniProt P42684).
T1 construct: 107-167; GST (N); made in house; host or cells: Escherichia coli CodonPlus, Rosetta, BL21(DE3)
Nature of the test: Fluorescence polarization SH3 domain-PRP binding. Particulars: FP, 0.2 µM fluorescein-labeled peptide, SH3 domain 0-200 µM, Tris/HCl pH 7.5, 25 °C, quadratic fit. A digest of the protocol: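 First, labeled proline-rich peptide was held at 0.2 µM in 30 mM Tris/HCl (pH 7.5), 5 mM MgCl2, 3 mM DTT. Next, SH3 domains as GST fusions were added from 0 to 200 µM at 25 °C. Finally, polarization (470/560 nm) was fitted quadratically to give Kd.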
(In general: Polarisation of emitted light reports the rotation of a fluorescent probe.)

Test [2] has as its target T2, NCK1-3Set-2 (N225E, W229G, K244E) SH3 domain (Homo sapiens, UniProt P16333, K244E/N225E/W229G).
T2 construct: 190–252; GST (N); made in house; host or cells: Escherichia coli (CodonPlus, Rosetta, BL21(DE3)), pGEX4-T1
Nature of the test: Fluorescence polarization, SH3 domain mutant. Particulars: NCK1-3 Set-2 mutant, FP, 0.2 µM fluorescent peptide, quadratic fit. The format is binding. On the procedure:
(§1) The interaction between fluorescein-labeled proline-rich peptides (0.2 µM) and increasing concentrations of SH3 domains (ranging from 0 to 200 µM) was measured in a buffer (containing 30 mM Tris/HCl (pH 7.5), 5 mM MgCl2, and 3 mM DTT at 25 °C) in a total volume of 200 µL using a Fluoromax 4 fluorimeter in polarization mode and a quartz glass fluorescence cuvette (Hellma Ultra-Micro Cuvette 105.250-QS, Thermo Fisher Scientific, Waltham, MA USA). Excitation was performed at 470 nm and emission was measured at 560 nm. Dissociation constants (Kd) were determined by fitting the concentration-dependent binding curve to a quadratic ligand binding equation.
(§2) To better understand the role of the residues of SH3 domains in selective binding to PRPs, we have generated a multiple sequence alignment (Figure S7). It highlights the conserved and variable residues that are likely to be critical for the selectivity and affinity of the SH3 domain–PRM interactions. […] Two different sets of mutations were generated by substituting a combination of amino acids from ARHGAP12 and NCK1-3 for ABL2 and BIN1 and vice versa (Figure 3A; Table S1).
(§3) Figure S8. Mutational analysis of the SH3-fluorescent PRPs interactions using fluorescence polarization.
(§4) Fluorescent peptides (0.2 µM) were titrated with increasing concentrations of the corresponding SH3 domain mutants (see Figure 3A and Table S1). The x-axis represents SH3 domain concentrations as GST fusion proteins in µM, while the y-axis represents fluorescence polarization. The equilibrium dissociation constants (Kd) for the respective measurements were determined by fitting the titration curves to a quadratic ligand-binding equation […]
(§5) (solid lines). Error bars are derived from the fitting errors.
(§6) (1 picture or pasted object on this page, not shown here)

The target in test [3] is T3, ARHGAP12Set-1 (K28S, R30N, F62G, Y63W) SH3 domain (Homo sapiens, UniProt Q8IWW6, F62G/K28S/R30N/Y63W).
T3 construct: 12-74; GST (N); made in house; host or cells: Escherichia coli (CodonPlus, Rosetta, BL21(DE3)), pGEX4-T1
T3 sequence (Q8IWW6 12-74 K28S/R30N/F62G/Y63W): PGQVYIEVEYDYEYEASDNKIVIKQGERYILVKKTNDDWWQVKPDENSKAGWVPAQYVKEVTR
Nature of the test: Fluorescence polarization, SH3 domain mutant. Conditions: ARHGAP12 Set-1 mutant; FP, 0.2 µM fluorescent peptide, quadratic fit. The format is binding. How it is done: as §1, §2, §3, §4, §5, §6

Usually Kd stands for the concentration at which binding is half-saturated.

Like-named read-outs stand apart in the source and are kept apart here. Peptide text beside a SMILES is read from it.

T1 sequence (P42684 107-167): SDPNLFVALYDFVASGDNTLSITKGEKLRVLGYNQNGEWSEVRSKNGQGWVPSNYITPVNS

For the compound `CC(C)[C@H](NC(=O)[C@@H]1CCCN1C(=O)[C@@H]1CCCN1C(=O)[C@H](C)NC(=O)[C@H](CCC(=O)O)NC(=O)[C@H](CS)NC(=O)[C@@H](N)CCCNC(=N)N)C(=O)N1CCC[C@H]1C(=O)N1CCC[C@H]1C(=O)N[C@@H](CCCNC(=N)N)C(=O)N[C@@H](CCCNC(=N)N)C(=O)N[C@@H](CCC(=O)O)C(=O)N[C@@H](CCCNC(=N)N)C(=O)NCC(=O)O` [RP2, reference compound] (H-RCEAPPVPPRRERG-OH), the dissociation constant Kd in test [1] is more than 200 µM.
On to `CC(C)C[C@H](NC(=O)[C@@H](NC(=O)[C@@H](N)C(C)C)[C@@H](C)O)C(=O)N1CCC[C@H]1C(=O)N[C@@H](Cc1c[nH]cn1)C(=O)NCC(=O)N1CCC[C@H]1C(=O)N[C@@H](CCCNC(=N)N)C(=O)N[C@@H](CO)C(=O)N[C@@H](C)C(=O)O` [Peptide P2] (H-VTLPHGPRSA-OH), for which the Kd in test [1] is more than 200 µM.
Same read-out and setting: with `CC(C)C[C@H](NC(=O)[C@@H]1CCCN1C(=O)[C@@H](NC(=O)[C@H](CCCNC(=N)N)NC(=O)[C@@H]1CCCN1C(=O)[C@H](CO)NC(=O)[C@H](CC(N)=O)NC(=O)[C@@H]1CCCN1C(=O)[C@H](C)NC(=O)[C@@H](N)CO)[C@@H](C)O)C(=O)N[C@H](C(=O)N1CCC[C@H]1C(=O)N1CCC[C@H]1C(=O)N1CCC[C@H]1C(=O)N[C@@H](C)C(=O)N[C@@H](CO)C(=O)O)[C@@H](C)O` [Peptide P1] (H-SAPNSPRTPLTPPPAS-OH) the figure was more than 200 µM; with `CC[C@H](C)[C@H](NC(=O)[C@H](Cc1c[nH]cn1)NC(=O)[C@@H](N)CCC(N)=O)C(=O)N1CCC[C@H]1C(=O)N[C@@H](CCCCN)C(=O)N[C@@H](CC(C)C)C(=O)N1CCC[C@H]1C(=O)N1CCC[C@H]1C(=O)N[C@@H](CCCCN)C(=O)N[C@H](C(=O)N[C@@H](Cc1ccc(O)cc1)C(=O)O)[C@@H](C)O` [Peptide P10] (H-QHIPKLPPKTY-OH; N-terminus and C-terminus assumed), more than 200 µM.
Regarding `CC[C@H](C)[C@H](N)C(=O)N[C@@H](C)C(=O)NCC(=O)N1CCC[C@H]1C(=O)N1CCC[C@H]1C(=O)N[C@H](C(=O)N1CCC[C@H]1C(=O)N1CCC[C@H]1C(=O)N[C@@H](CCCNC(=N)N)C(=O)N[C@@H](CCC(N)=O)C(=O)N[C@@H](CO)C(=O)O)C(C)C` [Peptide P9] (H-IAGPPVPPRQS-OH), the Kd is more than 200 µM in test [1], “did not differ from the NCK1-3^wt” in test [2] and 800 nM in test [2] (read-out: Kd).
In test [1], `CC(C)[C@H](N)C(=O)N1CCC[C@H]1C(=O)N[C@H](C(=O)N1CCC[C@H]1C(=O)N1CCC[C@H]1C(=O)N1CCC[C@H]1C(=O)N[C@H](C(=O)N1CCC[C@H]1C(=O)N1CCC[C@H]1C(=O)N[C@@H](CCCNC(=N)N)C(=O)N[C@@H](CCCNC(=N)N)C(=O)N[C@@H](CCCNC(=N)N)C(=O)O)C(C)C)C(C)C` [RP1, reference compound] yielded a Kd of 11 µM.
Same read-out and setting: the figure for `CC(C)C[C@H](NC(=O)[C@H](Cc1c[nH]cn1)NC(=O)[C@H](CC(C)C)NC(=O)[C@@H]1CCCN1C(=O)[C@H](CO)NC(=O)[C@H](CO)NC(=O)[C@@H](N)CO)C(=O)N[C@@H](CCC(N)=O)C(=O)N1CCC[C@H]1C(=O)N1CCC[C@H]1C(=O)N1CCC[C@H]1C(=O)N[C@@H](CC(C)C)C(=O)NCC(=O)N[C@@H](CCCCN)C(=O)N[C@@H](CCCCN)C(=O)O` [Peptide P6] (H-SSSPLHLQPPPLGKK-OH; N-terminus and C-terminus assumed) is more than 200 µM.
Compound `CC[C@H](C)[C@H](NC(=O)[C@H](CCCCN)NC(=O)[C@H](CO)NC(=O)[C@@H]1CCCN1C(=O)[C@H](CO)NC(=O)[C@H](CO)NC(=O)[C@H](CCC(=O)O)NC(=O)[C@H](C)NC(=O)[C@@H]1CCCN1C(=O)[C@H](C)NC(=O)[C@H](CO)NC(=O)[C@H](CCC(=O)O)NC(=O)[C@@H]1CCCN1C(=O)[C@H](CCCNC(=N)N)NC(=O)[C@H](CCCNC(=N)N)NC(=O)[C@H](CCCNC(=N)N)NC(=O)[C@@H]1CCCN1C(=O)[C@@H]1CCCN1C(=O)[C@@H](NC(=O)[C@@H]1CCCN1C(=O)[C@@H]1CCCN1C(=O)[C@@H]1CCCN1C(=O)[C@@H](NC(=O)[C@@H]1CCCN1C(=O)[C@@H](NC(=O)[C@@H](N)CCC(=O)O)C(C)C)C(C)C)C(C)C)C(=O)O` [Peptide P3] (H-EVPVPPPVPPRRRPESAPAESSPSKI-OH) returned a Kd in test [1] of more than 200 µM.
`C[C@H](N)C(=O)N[C@@H](Cc1ccccc1)C(=O)N[C@@H](Cc1ccccc1)C(=O)N1CCC[C@H]1C(=O)N[C@@H](CC(N)=O)C(=O)N[C@@H](CO)C(=O)N1CCC[C@H]1C(=O)N[C@@H](CO)C(=O)N1CCC[C@H]1C(=O)N[C@@H](Cc1ccccc1)C(=O)N[C@H](C(=O)N1CCC[C@H]1C(=O)N1CCC[C@H]1C(=O)N1CCC[C@H]1C(=O)N1CCC[C@H]1C(=O)N[C@@H](CCC(N)=O)C(=O)N[C@H](C(=O)N1CCC[C@H]1C(=O)N[C@@H](CO)C(=O)N1CCC[C@H]1C(=O)N[C@@H](Cc1c[nH]cn1)C(=O)NCC(=O)N[C@H](C(=O)O)[C@@H](C)O)[C@@H](C)O)[C@@H](C)O` [Peptide P7] (H-AFFPNSPSPFTPPPPQTPSPHGT-OH): the results for the Kd in test [1] and in test [3] were 67.3 µM and 23 µM, respectively.
`CC[C@H](C)[C@H](N)C(=O)N[C@@H](CO)C(=O)N[C@@H](CC(=O)O)C(=O)N1CCC[C@H]1C(=O)N1CCC[C@H]1C(=O)N[C@@H](CCC(=O)O)C(=O)N[C@@H](CO)C(=O)N1CCC[C@H]1C(=O)N1CCC[C@H]1C(=O)N[C@@H](CC(C)C)C(=O)N[C@@H](CC(C)C)C(=O)N1CCC[C@H]1C(=O)N1CCC[C@H]1C(=O)N[C@@H](CCCNC(=N)N)C(=O)N[C@@H](CCC(=O)O)C(=O)N1CCC[C@H]1C(=O)N[C@H](C(=O)N[C@@H](CCCNC(=N)N)C(=O)N[C@H](C(=O)N1CCC[C@H]1C(=O)N[C@@H](CC(=O)O)C(=O)N[C@H](C(=O)O)C(C)C)[C@@H](C)O)C(C)C` [Peptide P5] (H-ISDPPESPPLLPPREPVRTPDV-OH): in test [1], the Kd was more than 200 µM.
Same read-out and setting: with `CC(C)C[C@H](NC(=O)[C@@H]1CCCN1C(=O)[C@@H]1CCCN1C(=O)[C@H](CO)NC(=O)[C@@H]1CCCN1C(=O)[C@H](CC(C)C)NC(=O)[C@H](Cc1c[nH]cn1)NC(=O)[C@@H](N)CCCNC(=N)N)C(=O)N[C@H](C(=O)N[C@@H](CCC(N)=O)C(=O)O)[C@@H](C)O` [Peptide P8] (H-RHLPSPPLTQ-OH; N-terminus and C-terminus assumed) the figure was more than 200 µM.
In turn, `CC[C@H](C)[C@H](NC(=O)[C@H](C)NC(=O)[C@@H]1CCCN1C(=O)[C@@H]1CCCN1C(=O)[C@H](CO)NC(=O)[C@H](CC(=O)O)NC(=O)[C@@H](N)CC(C)C)C(=O)N1CCC[C@H]1C(=O)N1CCC[C@H]1C(=O)N[C@@H](CCCNC(=N)N)C(=O)N[C@@H](CCC(N)=O)C(=O)N1CCC[C@H]1C(=O)N[C@H](C(=O)N[C@@H](CO)C(=O)N[C@@H](CCCCN)C(=O)O)[C@@H](C)O` [Peptide P4] (H-LDSPPAIPPRQPTSK-OH) registered a Kd in test [1] of 125 µM.

These data come from publication PMC10814857, “Functional Classification and Interaction Selectivity Landscape of the Human SH3 Domain Superfamily” (Cells, 2024).
